Experiments:
HEK293 = test: cells; format: functional, Homo sapiens, ATCC CRL1573; details: Homo sapiens, ATCC CRL1573, HEK293; ASSAY_TEST Inhibition of Cell Viability; detection method Resazurin; Fluorescence (ex560/em590); MEDIA DMEM with 10% FBS; plate type 384well; TC; CORNING #3712; time 18 hr; read-out: CC50
Pseudomonas aeruginosa [1] = test: Antibacterial activity against Pseudomonas aeruginosa PAO397 [PAO1 d(mexAB-oprM) d(mexCD-oprJ) d(mexEF-oprN) d(mexJKL) d(mexXY) d(opmH)] (CO-ADD:GN_211); MIC in CAMBH media using NBS plates, by OD(600); format: functional; details: ASSAY_TEST Inhibition of Bacterial Growth, detection method Absorption (OD600), MEDIA CAMHB, plate type 384well, CORNING #3640, time 18 hr
Staphylococcus aureus = test: microbe, parasite or virus in culture; details: ATCC 43300, 18 h, ASSAY_TEST Inhibition of Bacterial Growth, detection method Absorption (OD600), MEDIA CAMHB, plate type 384well, NBS, CORNING #3640
Description: Antibacterial activity against Staphylococcus aureus MRSA ATCC 43300 (CO-ADD:GP_020); MIC in CAMBH media, using NBS plates, by OD(600)

Escherichia coli = test: microbe, parasite or virus in culture; details: ATCC 25922, 18 h, ASSAY_TEST Inhibition of Bacterial Growth, detection method Absorption (OD600), MEDIA CAMHB, plate type 384well, NBS, CORNING #3640
Description: Antibacterial activity against Escherichia coli ATCC 25922 (CO-ADD:GN_001); MIC in CAMBH media using NBS plates, by OD(600)

Klebsiella pneumoniae = test: microbe, parasite or virus in culture; details: ATCC 700603, 18 h, ASSAY_TEST Inhibition of Bacterial Growth, detection method Absorption (OD600), MEDIA CAMHB, plate type 384well, NBS, CORNING #3640
Description: Antibacterial activity against Klebsiella pneumoniae MDR ATCC 70063 (CO-ADD:GN_003); MIC in CAMBH media using NBS plates, by OD(600)

Pseudomonas aeruginosa [2] = test: microbe, parasite or virus in culture; details: ATCC 27853, 18 h, ASSAY_TEST Inhibition of Bacterial Growth, detection method Absorption (OD600), MEDIA CAMHB, plate type 384well, NBS, CORNING #3640
Description: Antibacterial activity against Pseudomonas aeruginosa ATCC 27853 (CO-ADD:GN_042); MIC in CAMBH media using NBS plates, by OD(600)

Acinetobacter baumannii = test: microbe, parasite or virus in culture; details: ATCC 19606, 18 h, ASSAY_TEST Inhibition of Bacterial Growth, detection method Absorption (OD600), MEDIA CAMHB, plate type 384well, NBS, CORNING #3640
Description: Antibacterial activity against Acinetobacter baumannii ATCC 19606 (CO-ADD:GN_034); MIC in CAMBH media using NBS plates, by OD600

Candida albicans = test: microbe, parasite or virus in culture; details: ATCC 90028, ASSAY_TEST Inhibition of Fungal Growth, detection method Absorption (OD530), plate type 384well, NBS, CORNING #3640
Description: Antifungal activity against Candida albicans ATCC 90028 (CO-ADD:FG_001); MIC in YNB media using NBS plates, by OD630

Description for Cryptococcus neoformans: Antifungal activity against Cryptococcus neoformans H99 ATCC 208821 (CO-ADD:FG_002); MIC in YNB media using NBS plates, by Resazurin OD(600-570)

CC(C)(C)NC(=O)[C@@H]1C[C@@H]2CCCC[C@@H]2CN1C[C@@H](O)[C@H](Cc1ccccc1)NC(=O)[C@H](CC(N)=O)NC(=O)c1ccc2ccccc2n1
> 20 µM: CC50 (HEK293) | MIC (Pseudomonas aeruginosa [1]) | MIC (Cryptococcus neoformans) | MIC (Staphylococcus aureus) | MIC (Escherichia coli) | MIC (Klebsiella pneumoniae) | MIC (Pseudomonas aeruginosa [2]) | MIC (Acinetobacter baumannii) | MIC (Candida albicans)

O=c1[nH]c(=O)n(Cc2cccc(Oc3ccccc3)c2)cc1Nc1ccccc1
> 20 µM: CC50 (HEK293) | MIC (Pseudomonas aeruginosa [1]) | MIC (Cryptococcus neoformans) | MIC (Staphylococcus aureus) | MIC (Escherichia coli) | MIC (Klebsiella pneumoniae) | MIC (Pseudomonas aeruginosa [2]) | MIC (Acinetobacter baumannii) | MIC (Candida albicans)

CCOC(=O)/C=C/[C@H](C[C@@H]1CCNC1=O)NC(=O)[C@H](CC)n1cccc(NC(=O)c2cc(C)on2)c1=O
> 20 µM: CC50 (HEK293) | MIC (Pseudomonas aeruginosa [1]) | MIC (Cryptococcus neoformans) | MIC (Staphylococcus aureus) | MIC (Escherichia coli) | MIC (Klebsiella pneumoniae) | MIC (Pseudomonas aeruginosa [2]) | MIC (Acinetobacter baumannii) | MIC (Candida albicans)

Cc1nc2ccc(Cl)cc2c(-c2ccccc2)c1CC(=O)O
> 20 µM: CC50 (HEK293) | MIC (Pseudomonas aeruginosa [1]) | MIC (Cryptococcus neoformans) | MIC (Staphylococcus aureus) | MIC (Escherichia coli) | MIC (Klebsiella pneumoniae) | MIC (Pseudomonas aeruginosa [2]) | MIC (Acinetobacter baumannii) | MIC (Candida albicans)

CC(C)(C)c1ccc(Oc2ccc(N)cc2)cc1
> 20 µM: CC50 (HEK293) | MIC (Pseudomonas aeruginosa [1]) | MIC (Cryptococcus neoformans) | MIC (Staphylococcus aureus) | MIC (Escherichia coli) | MIC (Klebsiella pneumoniae) | MIC (Pseudomonas aeruginosa [2]) | MIC (Acinetobacter baumannii) | MIC (Candida albicans)

Oc1ccc(NCc2ccccc2OCc2ccccc2)cc1
> 20 µM: CC50 (HEK293) | MIC (Pseudomonas aeruginosa [1]) | MIC (Cryptococcus neoformans) | MIC (Staphylococcus aureus) | MIC (Escherichia coli) | MIC (Klebsiella pneumoniae) | MIC (Pseudomonas aeruginosa [2]) | MIC (Acinetobacter baumannii) | MIC (Candida albicans)

NC(=O)c1c(N)sc2c1CCCCC2
> 20 µM: CC50 (HEK293) | MIC (Pseudomonas aeruginosa [1]) | MIC (Cryptococcus neoformans) | MIC (Staphylococcus aureus) | MIC (Escherichia coli) | MIC (Klebsiella pneumoniae) | MIC (Pseudomonas aeruginosa [2]) | MIC (Acinetobacter baumannii) | MIC (Candida albicans)

O=S(=O)(Nc1ccc(O)cc1)c1cccc2cccnc12
> 20 µM: CC50 (HEK293) | MIC (Pseudomonas aeruginosa [1]) | MIC (Cryptococcus neoformans) | MIC (Staphylococcus aureus) | MIC (Escherichia coli) | MIC (Klebsiella pneumoniae) | MIC (Pseudomonas aeruginosa [2]) | MIC (Acinetobacter baumannii) | MIC (Candida albicans)

O=C(c1cc(O)nc2ccccc12)N1CCN(c2ccccc2)CC1
> 20 µM: CC50 (HEK293) | MIC (Pseudomonas aeruginosa [1]) | MIC (Cryptococcus neoformans) | MIC (Staphylococcus aureus) | MIC (Escherichia coli) | MIC (Klebsiella pneumoniae) | MIC (Pseudomonas aeruginosa [2]) | MIC (Acinetobacter baumannii) | MIC (Candida albicans)

COc1ccc(NS(=O)(=O)c2ccc(Cl)s2)cn1
> 20 µM: CC50 (HEK293) | MIC (Pseudomonas aeruginosa [1]) | MIC (Cryptococcus neoformans) | MIC (Staphylococcus aureus) | MIC (Escherichia coli) | MIC (Klebsiella pneumoniae) | MIC (Pseudomonas aeruginosa [2]) | MIC (Acinetobacter baumannii) | MIC (Candida albicans)

Cc1ccc(C)c(OCCCCCCN2C[C@H](O)[C@@H](O)[C@H](O)[C@H]2CO)c1
> 20 µM: CC50 (HEK293) | MIC (Pseudomonas aeruginosa [1]) | MIC (Cryptococcus neoformans) | MIC (Staphylococcus aureus) | MIC (Escherichia coli) | MIC (Klebsiella pneumoniae) | MIC (Pseudomonas aeruginosa [2]) | MIC (Acinetobacter baumannii) | MIC (Candida albicans)

CCc1cc(CCC(=O)Nc2ccccc2O)c(O)nc1C
> 20 µM: CC50 (HEK293) | MIC (Pseudomonas aeruginosa [1]) | MIC (Cryptococcus neoformans) | MIC (Staphylococcus aureus) | MIC (Escherichia coli) | MIC (Klebsiella pneumoniae) | MIC (Pseudomonas aeruginosa [2]) | MIC (Acinetobacter baumannii) | MIC (Candida albicans)

Cc1ccc(N2CCC(CCOc3ccc(S(C)(=O)=O)cc3)CC2)nn1
> 20 µM: CC50 (HEK293) | MIC (Pseudomonas aeruginosa [1]) | MIC (Cryptococcus neoformans) | MIC (Staphylococcus aureus) | MIC (Escherichia coli) | MIC (Klebsiella pneumoniae) | MIC (Pseudomonas aeruginosa [2]) | MIC (Acinetobacter baumannii) | MIC (Candida albicans)

C[C@H](NC(=O)C(=O)Nc1ccccc1C(C)(C)C)C(=O)N[C@@H](CC(=O)O)C(=O)COc1c(F)c(F)cc(F)c1F
> 20 µM: CC50 (HEK293) | MIC (Pseudomonas aeruginosa [1]) | MIC (Cryptococcus neoformans) | MIC (Staphylococcus aureus) | MIC (Escherichia coli) | MIC (Klebsiella pneumoniae) | MIC (Pseudomonas aeruginosa [2]) | MIC (Acinetobacter baumannii) | MIC (Candida albicans)

Cc1ccccc1NC(=O)Nc1cccc([N+](=O)[O-])c1
> 20 µM: CC50 (HEK293) | MIC (Pseudomonas aeruginosa [1]) | MIC (Cryptococcus neoformans) | MIC (Staphylococcus aureus) | MIC (Escherichia coli) | MIC (Klebsiella pneumoniae) | MIC (Pseudomonas aeruginosa [2]) | MIC (Acinetobacter baumannii) | MIC (Candida albicans)

CCOC(=O)/C=C/[C@H](C[C@@H]1CCNC1=O)NC(=O)[C@@H](CC(=O)[C@@H](NC(=O)c1cc(C)on1)C(C)C)Cc1ccc(F)cc1
> 20 µM: CC50 (HEK293) | MIC (Pseudomonas aeruginosa [1]) | MIC (Cryptococcus neoformans) | MIC (Staphylococcus aureus) | MIC (Escherichia coli) | MIC (Klebsiella pneumoniae) | MIC (Pseudomonas aeruginosa [2]) | MIC (Acinetobacter baumannii) | MIC (Candida albicans)

NC(=O)c1nccn([C@@H]2O[C@H](CO)[C@@H](O)[C@H]2O)c1=O
> 20 µM: CC50 (HEK293) | MIC (Pseudomonas aeruginosa [1]) | MIC (Cryptococcus neoformans) | MIC (Staphylococcus aureus) | MIC (Escherichia coli) | MIC (Klebsiella pneumoniae) | MIC (Pseudomonas aeruginosa [2]) | MIC (Acinetobacter baumannii) | MIC (Candida albicans)

CC[N+]1(C/C2=C/CCCCCC2)CCC(NC(=O)C2c3cc(Cl)ccc3Oc3ccc(Cl)cc32)CC1 (configuration not stated)
20 µM: MIC (Staphylococcus aureus)
> 20 µM: CC50 (HEK293) | MIC (Pseudomonas aeruginosa [1]) | MIC (Cryptococcus neoformans) | MIC (Escherichia coli) | MIC (Klebsiella pneumoniae) | MIC (Pseudomonas aeruginosa [2]) | MIC (Acinetobacter baumannii) | MIC (Candida albicans)

CCc1cc(CCCOc2c(C)cc(-c3noc(C(F)(F)F)n3)cc2C)on1
> 20 µM: CC50 (HEK293) | MIC (Pseudomonas aeruginosa [1]) | MIC (Cryptococcus neoformans) | MIC (Staphylococcus aureus) | MIC (Escherichia coli) | MIC (Klebsiella pneumoniae) | MIC (Pseudomonas aeruginosa [2]) | MIC (Acinetobacter baumannii) | MIC (Candida albicans)

CCC(CC)[C@H](NC(C)=O)[C@@H]1[C@H](O)[C@@H](C(=O)O)C[C@H]1NC(=N)N
> 20 µM: CC50 (HEK293) | MIC (Pseudomonas aeruginosa [1]) | MIC (Cryptococcus neoformans) | MIC (Staphylococcus aureus) | MIC (Escherichia coli) | MIC (Klebsiella pneumoniae) | MIC (Pseudomonas aeruginosa [2]) | MIC (Acinetobacter baumannii) | MIC (Candida albicans)

COc1ccc2c(c1OC)C(=O)OC2C1c2c(cc3c(c2OC)OCO3)CCN1C (configuration not stated)
> 20 µM: CC50 (HEK293) | MIC (Pseudomonas aeruginosa [1]) | MIC (Cryptococcus neoformans) | MIC (Staphylococcus aureus) | MIC (Escherichia coli) | MIC (Klebsiella pneumoniae) | MIC (Pseudomonas aeruginosa [2]) | MIC (Acinetobacter baumannii) | MIC (Candida albicans)

CCCCCCCCCN1C[C@@H](O)[C@H](O)[C@@H](O)[C@@H]1CO
> 20 µM: CC50 (HEK293) | MIC (Pseudomonas aeruginosa [1]) | MIC (Cryptococcus neoformans) | MIC (Staphylococcus aureus) | MIC (Escherichia coli) | MIC (Klebsiella pneumoniae) | MIC (Pseudomonas aeruginosa [2]) | MIC (Acinetobacter baumannii) | MIC (Candida albicans)

O=C(NCCN1CCCCC1)c1cccc(C(F)(F)F)c1
> 20 µM: CC50 (HEK293) | MIC (Pseudomonas aeruginosa [1]) | MIC (Cryptococcus neoformans) | MIC (Staphylococcus aureus) | MIC (Escherichia coli) | MIC (Klebsiella pneumoniae) | MIC (Pseudomonas aeruginosa [2]) | MIC (Acinetobacter baumannii) | MIC (Candida albicans)

COC1CC2CCC(C)C(O)(O2)C(=O)C(=O)N2CCCCC2C(=O)OC(C(C)CC2CCC(OCCO)C(OC)C2)CC(=O)C(C)/C=C(\C)C(O)C(OC)C(=O)C(C)CC(C)/C=C/C=C/C=C/1C (configuration not stated)
≤ 0.156 µM: MIC (Cryptococcus neoformans) | MIC (Candida albicans)
> 20 µM: CC50 (HEK293) | MIC (Pseudomonas aeruginosa [1]) | MIC (Staphylococcus aureus) | MIC (Escherichia coli) | MIC (Klebsiella pneumoniae) | MIC (Pseudomonas aeruginosa [2]) | MIC (Acinetobacter baumannii)

O=C(NC1CCCc2c1[nH]c1ccc(Cl)cc21)c1ccccn1 (configuration not stated)
20 µM: MIC (Pseudomonas aeruginosa [1])
> 20 µM: CC50 (HEK293) | MIC (Cryptococcus neoformans) | MIC (Staphylococcus aureus) | MIC (Escherichia coli) | MIC (Klebsiella pneumoniae) | MIC (Pseudomonas aeruginosa [2]) | MIC (Acinetobacter baumannii) | MIC (Candida albicans)

Nc1ccc2oc(=O)ccc2c1I
> 20 µM: CC50 (HEK293) | MIC (Pseudomonas aeruginosa [1]) | MIC (Cryptococcus neoformans) | MIC (Staphylococcus aureus) | MIC (Escherichia coli) | MIC (Klebsiella pneumoniae) | MIC (Pseudomonas aeruginosa [2]) | MIC (Acinetobacter baumannii) | MIC (Candida albicans)

COc1ccc2sc3c(c2c1)NC(C)CNC3=O (configuration not stated)
> 20 µM: MIC (Pseudomonas aeruginosa [1]) | MIC (Cryptococcus neoformans) | MIC (Staphylococcus aureus) | MIC (Escherichia coli) | MIC (Klebsiella pneumoniae) | MIC (Pseudomonas aeruginosa [2]) | MIC (Acinetobacter baumannii) | MIC (Candida albicans)
8.52 µM: CC50 (HEK293)

O=c1oc2ccc(Br)cc2cc1CSc1ncc[nH]1
> 20 µM: CC50 (HEK293) | MIC (Pseudomonas aeruginosa [1]) | MIC (Cryptococcus neoformans) | MIC (Staphylococcus aureus) | MIC (Escherichia coli) | MIC (Klebsiella pneumoniae) | MIC (Pseudomonas aeruginosa [2]) | MIC (Acinetobacter baumannii) | MIC (Candida albicans)
